Reference: the OPERA property sets (Mansouri et al. 2018)

| logP | Structure (SMILES) |
| --- | --- |
| -0.31 | COc1ccnnc1 |
| 0.1 | Clc1cccnn1 |
| 0.36 | Clc1ncccn1 |
| 0.52 | CCOC(=O)c1cncnc1 |
| -0.71 | COC(=O)c1ncccn1 |
| 0.74 | Fc1cncc(F)n1 |
| 0.03 | COC(=O)c1cncnc1 |
| 0.07 | COc1cncnc1 |
| 0.58 | CN(C)c1ccncn1 |
| -0.22 | CC(=O)Nc1cncnc1 |
| -1.2 | NC(=O)c1ncccn1 |
| 0.03 | CC(=O)Nc1ccncn1 |
| 0.74 | CCOc1ncccn1 |
| -0.25 | Nc1ccncn1 |
| -0.68 | NC(=O)c1ccncn1 |
| -0.31 | CCOC(=O)c1ncccn1 |
| 1.82 | CCOc1nccnc1C |
| 0.56 | CCOc1cncnc1 |
| -0.27 | COC(=O)c1ccncn1 |
| 0.23 | CCOC(=O)c1ccnnc1 |
| -0.43 | COC(=O)c1cccnn1 |
| 1.07 | CN(C)c1ncccn1 |

| logP | Structure (SMILES) |
| --- | --- |
| 0.95 | N#Cc1ncc(Cl)nc1C#N |
| -0.32 | Cc1ccnnc1 |
| 1.28 | COC(=O)c1ccoc1 |
| 0.54 | COc1ccncn1 |
| 0.08 | COc1cccnn1 |
| -0.53 | Nc1ccnnc1 |
| -0.31 | N#Cc1ncccn1 |
| 2.3 | CCCCc1nc(C#N)c(C#N)nc1C |
| -0.05 | Cc1ncccn1 |
| -0.73 | NC(=O)c1cccnn1 |
| 0.02 | Fc1ncccn1 |
| -0.63 | N#Cc1ccnnc1 |
| -0.35 | Cc1cccnn1 |
| 0.63 | CCOc1cccnn1 |
| 0.01 | Cc1cncnc1 |
| 1.01 | CSc1ncccn1 |
| 0.67 | Nc1cnc(Cl)cn1 |
| -0.27 | COC(=O)c1ccnnc1 |
| 0.46 | CN(C)c1cncnc1 |
| -0.92 | NC(=O)c1cncnc1 |
| 1.8 | CCc1nccnc1OC |
| -0.96 | NC(=O)c1ccnnc1 |
